Test results as given in paper PMC11243693, “Synthesis and Biological Evaluation of New Compounds with Nitroimidazole Moiety” (Molecules, 2024).
≈ marks a conversion by molar mass, not a printed value.

Assays:
Assay type in all cases: cell-based
[1] = system: Staphylococcus epidermidis ATCC 12228; assay: Broth microdilution, S. epidermidis ATCC 12228; conditions: Se 12228
Method in brief: (§1)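 MIC: A570 after 18 ± 2 h, 35 ± 2 °C. Medium: MH broth (bacterium) or MH + 2% glucose (yeasts). Serial 2-fold dilutions of compound, top solution 1000 µg/mL. Inoculum: 0.5 McFarland suspension diluted 10×. MBC/MFC: subculture onto MHA or MHA + 2% glc, 99.9% growth inhibition.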

[2] = system: Bacillus cereus ATCC 10876; assay: Broth microdilution, B. cereus ATCC 10876; conditions: Bc 10876
Method in brief: (§2)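 EUCAST broth microdilution: inoculum 0.5 McFarland, 10-fold diluted; Mueller-Hinton broth (bacteria) or MH + 2% glucose (yeast); twofold dilutions from 1000 µg/mL; 18 ± 2 h at 35 ± 2 °C, A570 read for MIC. MBC/MFC from subculture on MHA or MHA + 2% glc (99.9% kill).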

[3] = system: Micrococcus luteus ATCC 10240; assay: Broth microdilution, M. luteus ATCC 10240; conditions: Ml 10240
Method in brief: as §1

[4] = system: Candida tropicalis ATCC 1369; assay: Broth microdilution, C. tropicalis ATCC 1369; conditions: Ct 1369
Method in brief: as §2

[5] = system: Candida parapsilosis ATCC 22019; assay: Broth microdilution, C. parapsilosis ATCC 22019; conditions: Cp 22019
Method in brief: as §2

[6] = system: Candida lusitaniae ATCC 3449; assay: Broth microdilution, C. lusitaniae ATCC 3449; conditions: Cl 3449
Method in brief: as §2

[7] = system: Candida glabrata ATCC 15126; assay: Broth microdilution, C. glabrata ATCC 15126; conditions: Cg 15126
Method in brief: as §2

[8] = system: Candida krusei ATCC 14243; assay: Broth microdilution, C. krusei ATCC 14243; conditions: Ck 14243
Method in brief: as §2

[9] = system: Candida glabrata ATCC 90030; assay: Broth microdilution, C. glabrata ATCC 90030; conditions: Cg 90030
Method in brief: as §2

[10] = system: Gram-positive bacteria; assay: Broth microdilution, Gram-positive bacteria; conditions: strains as named in the sentence
Method: The antibacterial activity of the obtained thiosemicarbazides and hydrazide–hydrazones was determined by evaluating their ability to inhibit microbial growth in vitro using the broth microdilution method, according to the guidelines of the European Committee on Antimicrobial Susceptibility Testing (EUCAST). The method involved the preparation of microbial suspensions with a standardized density of 0.5 on the McFarland scale (equivalent to 1.5 × 10^8 colony-forming units/mL for bacteria and […] for fungi). A solution of the test substances was then prepared (initial concentration 1000 µg/mL, diluted in sterile Mueller-Hinton broth for bacteria or Mueller-Hinton with 2% glucose for fungi). The test was carried out in 96-well polystyrene flat-bottom plates (Medlab, Poland) with 100 µL of appropriate sterile microbiological medium in each well. […] After incubation, the spectrophotometric absorbance at 570 nm in each well of the plate was read. […] The MBC value was determined by adding 5 µL of the contents of each well of the plate to solid sterile MHA or MHA + 2%glc medium for bacteria and fungi, respectively. […] In addition, the quotient MBC(MFC)/MIC could be determined to assess the nature of the activity of the test substance. […]

[11] = system: Candida auris CDC B11903; assay: Broth microdilution, C. auris CDC B11903; conditions: Ca B11903
Method in brief: as §2

[12] = system: Staphylococcus aureus ATCC 43300 methicillin-resistant MRSA; assay: Broth microdilution, S. aureus ATCC 43300 MRSA; conditions: Sa 43300 MRSA
Method in brief: as §1

[13] = system: Staphylococcus aureus ATCC 6538; assay: Broth microdilution, S. aureus ATCC 6538; conditions: Sa 6538
Method in brief: as §2

[14] = system: Staphylococcus aureus ATCC 25923; assay: Broth microdilution, S. aureus ATCC 25923; conditions: Sa 25923
Method in brief: as §1

[15] = system: Bacillus subtilis ATCC 6633; assay: Broth microdilution, B. subtilis ATCC 6633; conditions: Bs 6633
Method in brief: as §1

[16] = system: Candida spp.; assay: Broth microdilution, Candida spp.; conditions: range over both strains and the listed compounds
Method: The antibacterial activity of the obtained thiosemicarbazides and hydrazide–hydrazones was determined by evaluating their ability to inhibit microbial growth in vitro using the broth microdilution method, according to the guidelines of the European Committee on Antimicrobial Susceptibility Testing (EUCAST). The method involved the preparation of microbial suspensions with a standardized density of 0.5 on the McFarland scale (equivalent to 1.5 × 10^8 colony-forming units/mL for bacteria and […] for fungi). A solution of the test substances was then prepared (initial concentration 1000 µg/mL, diluted in sterile Mueller-Hinton broth for bacteria or Mueller-Hinton with 2% glucose for fungi). The test was carried out in 96-well polystyrene flat-bottom plates (Medlab, Poland) with 100 µL of appropriate sterile microbiological medium in each well. The first wells were filled with 200 µL of the test substance, diluted to the initial concentration, and then double-decreasing dilutions were made under aseptic conditions using an automatic pipette. The final step was the addition of a 10-fold diluted microbial suspension of 2 µL. At the same time, the following controls were included: (a) medium control (100 µL of sterile medium without microorganisms added), (b) microbial viability control, (c) test substance control (dilutions without added micro-organisms), (d) positive control of the drug used in the clinic. The plates thus prepared were incubated for 18 ± 2 h at 35 ± 2 °C under conditions optimal for the growth of the test microorganisms. After incubation, the spectrophotometric absorbance at 570 nm in each well of the plate was read. The aim of this part of the study was to determine two parameters: the minimum inhibitory concentration (MIC) and the minimum bactericidal or fungicidal concentration (MBC/MFC) of the test compound. […] The MBC value was determined by adding 5 µL of the contents of each well of the plate to solid sterile MHA or MHA + 2%glc medium for bacteria and fungi, respectively. The area on the plate where 99.9% inhibition of microbial growth was observed indicated the lethal concentration. In addition, the quotient MBC(MFC)/MIC could be determined to assess the nature of the activity of the test substance. If MBC(MFC)/MIC was <4, the test substance was bactericidal/fungicidal, whereas if MBC(MFC)/MIC was ≥4, it was bacteriostatic/fungistatic. Amoxicillin (Glentham Life Sciences, USA) and nystatin (Glentham Life Sciences, USA) were used as the controls for this assay.
The test was performed either on bacteria, comprising: Gram-positive (Staphylococcus aureus ATCC 25923, Staphylococcus aureus ATCC 6538, Staphylococcus aureus ATCC 43300 methicillin-resistant MRSA, Staphylococcus epidermidis ATCC 12228, Micrococcus luteus ATCC 10240, Bacillus subtilis ATCC 6633, Bacillus cereus ATCC 10876) and Gram-negative (Escherichia coli ATCC 25922, Pseudomonas aeruginosa ATCC 27853, Proteus mirabilis ATCC 12453, Klebsiella pneumoniae ATCC 13883) or yeast (Candida parapsilosis ATCC 22019, Candida glabrata ATCC 90030, Candida krusei ATCC 14243, Candida glabrata ATCC 15126, Candida tropicalis ATCC 1369, Candida auris CDC B11903, Candida lusitaniae ATCC 3449) reference strains from the American Type Culture Collection (ATCC) or the Centers for Disease Control and Prevention (CDC).

[17] = <4 bactericidal, ≥4 bacteriostatic

## Cn1cc([N+](=O)[O-])nc1C(=O)NNC(=S)Nc1ccc(C(F)(F)F)cc1 [Compound 14]
[1]
  MBC: 500 µg/mL (≈ 1290 µM)
  MIC: 31.25 µg/mL (≈ 80.5 µM)
[1]; [17]
  MBC/MIC Ratio: 16
[2]
  MBC: 250 µg/mL (≈ 644 µM)
  MIC: 31.25 µg/mL (≈ 80.5 µM)
[2]; [17]
  MBC/MIC Ratio: 8
[3]
  MBC: 500 µg/mL (≈ 1290 µM)
  MIC: 62.5 µg/mL (≈ 161 µM)
[3]; [17]
  MBC/MIC Ratio: 8
[4]
  MFC: 500 µg/mL (≈ 1290 µM)
  MIC: 500 µg/mL (≈ 1290 µM)
[4]; <4 fungicidal, ≥4 fungistatic
  MFC/MIC Ratio: 1
[5]
  MIC: >1000 µg/mL
[6]
  MIC: >1000 µg/mL
[7]
  MIC: >1000 µg/mL
[8]
  MIC: >1000 µg/mL
[9]
  MIC: >1000 µg/mL
[10]
  MIC (range or value for several Gram-positive strains): 31.25 to 62.5 µg/mL
[11]
  MIC: >1000 µg/mL
[12]
  MBC: 500 µg/mL (≈ 1290 µM)
  MIC: 62.5 µg/mL (≈ 161 µM)
[13]
  MBC: 1000 µg/mL (≈ 2580 µM)
  MIC: 62.5 µg/mL (≈ 161 µM)
[14]
  MBC: >1000 µg/mL
  MIC: 31.25 µg/mL (≈ 80.5 µM)
[15]
  MBC: 31.25 µg/mL (≈ 80.5 µM)
  MIC: 31.25 µg/mL (≈ 80.5 µM)
[15]; [17]
  MBC/MIC Ratio: 1
[16]
  MBC (range, C. parapsilosis ATCC 22019 and C. tropicalis ATCC 1369): 500 to 1000 µg/mL
  MIC (range, C. parapsilosis ATCC 22019 and C. tropicalis ATCC 1369): 62.5 to 1000 µg/mL
